Reference: patent US8217000B2, “Method for elevating prolactin in mammals” (Cara Therapeutics, Inc., priority 2006, dated 2012)
Structures can show the parent of a compound that is named as a salt. Non-standard residues stand in square brackets, D forms with d. Residues, ends and D or L forms follow the SMILES beside them. *: point of attachment. NH(4-picolyl) = c1cc(CN*)ccn1; dNle = CCCC[C@@H](N)C(=O)O

Assay: Plasma pharmacokinetics of CR665 after single IV infusion in human subjects
Details: for half-life / clearance / Vd / AUC(0-t) / AUC(0-inf) / Cmax / MRT / Tmax: human, plasma; for clearance: CL; for AUC(0-t): AUC0-t; for AUC(0-inf): AUC0-∞; for MRT: MRTint; for Tmax: median
Experimental: This clinical study was conducted as a double blind, placebo controlled, ascending single intravenous (IV) dose, sequential group study. This study was double blind and placebo controlled in order to avoid bias in the collection and evaluation of data during its conduct. […] In each group, subjects received CR665 or placebo. Doses were administered as a single constant rate IV infusion over 1 hour (part A) or 5 minutes (part B) on the morning of Day 1. Doses were administered in an escalating manner following satisfactory review of the safety data and pharmacokinetic data from the lower dose levels. There was a minimum of 6 days between dose escalations to allow sufficient time for an adequate safety review.
Plasma and urine samples for the analysis of CR665 and N oxide metabolite were prepared by solid phase extraction. The centrifuged eluates were quantified by liquid chromatography with tandem mass spectrometric detection (LC MS/MS). The lower limit of quantification was 1 ng/mL.
For pharmacokinetic assessments, blood samples (1×3 mL) were taken from the contralateral forearm vein(s) at the following times: Pre-dose, 15 minutes, 30 minutes, 45 minutes, 1 hour (immediately prior to the end of infusion), 1 hour 5 minutes, 1 hour 10 minutes, 1 hour 15 minutes, 1.5, 2, 2.5, 3, 4, 6, 8, 12, 16, 24, 36 and 48 hours after the start of the infusion). An indwelling cannula (Venflon®; BOC Ohmeda AB, Sweden) was used for all blood collection pre-dose and up to at least 12 hours after the start of the infusion. Otherwise, samples were collected using venipuncture. Blood samples were collected into pre-chilled 3 mL K3EDTA Vacutainer™ tubes (Becton Dickinson UK, Ltd., Oxford) and, after mixing, were placed in a cool box containing crushed ice/water. The samples were centrifuged, within 30 minutes of collection, at 1500 g for 10 minutes at approximately 4° C. For each sample, the separated plasma was transferred into two 5 mL suitably labeled polypropylene tubes, and stored immediately at approximately −20° C. Plasma samples were analyzed for CR665 using liquid chromatography with tandem mass spectrometric detection.
The pharmacokinetic analysis was conducted using WinNonlin Enterprise Version 4.0.1.
Pharmacokinetic parameters were determined from the plasma and urine, concentrations of CR665 and the N-oxide metabolite using non compartmental procedures.
Dose and body weight normalized values (norm) were determined for AUC0-t, AUC0-∞, Cinf and Cmax. Body weight normalized values [norm] were determined for Vz, Vss, CL and CLR.
The pharmacokinetic analysis was conducted using model independent methods as implemented in WinNonlin software, based on plasma concentrations of CR665 from those subjects who have received CR665 and have evaluable plasma concentration-time profiles.
The following plasma pharmacokinetic parameters were determined for CR665: • Cmax Maximum plasma concentration • tmax Time of maximum plasma concentration • t1/2z Terminal half-life=ln(2)/λz • AUC0-1 Area under the plasma concentration-time curve from time zero to time t (time of last quantifiable plasma concentration) • AUCinf Area under the plasma concentration-time curve from time zero to infinity calculated as [AUC0-t+(Clast/λz)] where Clast is the estimated concentration at the last quantifiable concentration curve. • λz Terminal-phase rate constant, also known as Kel • CL Total body clearance=Dose/AUCinf • Vz Volume of distribution based on terminal phase calculated as Vz/F=Dose/λz*AUCinf
Individual elapsed sampling times were used in the pharmacokinetic analysis. Cmax and tmax were obtained directly from the experimental observations. For the purpose of calculating AUC0-t, when two consecutive plasma concentrations below the lower limit of quantification (LLOQ) were encountered after tmax, all subsequent values were excluded from the analysis.

[1] = female, iv, 0.06 mg/kg, females, 5-minute IV infusion, geometric mean
[2] = female, iv, 0.24 mg/kg, females, 1-hour IV infusion, geometric mean
[3] = females, 0.24 mg/kg dose level as printed, Part B text
[4] = male, iv, 0.015 mg/kg, males, 1 hour IV infusion, geometric mean
[5] = male, iv, 0.03 mg/kg, males, 5-minute IV infusion, geometric mean
[6] = male, iv, 0.03 mg/kg, males, 1 hour IV infusion, geometric mean

Compound: CCCC[C@@H](NC(=O)[C@@H](Cc1ccccc1)NC(=O)[C@H](N)Cc1ccccc1)C(=O)N[C@H](CCCNC(=N)N)C(=O)NCc1ccncc1 [CR665, D-phenylalanyl-D-phenylalanyl-D-norleucyl-N-(4-pyridinylmethyl)-D-argininamide, acetate salt] (H-[dF][dF][dNle][dR]-{NH(4-picolyl)})
- half-life (both, intravenous, 0.24 mg/kg, Mean terminal elimination half-life, male and female subjects, 1-hour infusion): 72 to 84 min
- clearance (female, intravenous, 0.06 mg/kg, geometric least squares mean, females, 5-minute infusion): 544 mL/min
- half-life (female, intravenous, 0.06 mg/kg, Mean terminal elimination half life, females, 5-minute infusion): ~48 min
- Vd (female, intravenous, 0.06 mg/kg, Vss, geometric least squares mean, females, 5-minute infusion): 14.1 L
- Vd (female, intravenous, 0.06 mg/kg, Vz, geometric least squares mean, females, 5-minute infusion): 45.7 L
- half-life (female, intravenous, 0.06 mg/kg, t1/2, geometric least squares mean, females, 5-minute infusion): 56.8 min
- clearance (female, intravenous, 0.24 mg/kg, geometric least squares mean, females, 1-hour infusion): 573 mL/min
- half-life (female, intravenous, 0.24 mg/kg, Mean terminal elimination half-life, females, 1-hour infusion): 72 min
- Vd (female, intravenous, 0.24 mg/kg, Vss, geometric least squares mean, females, 1-hour infusion): 17 L
- Vd (female, intravenous, 0.24 mg/kg, Vz, geometric least squares mean, females, 1-hour infusion): 50.2 L
- half-life (female, intravenous, 0.24 mg/kg, t1/2, geometric least squares mean, females, 1-hour infusion): 63 min
- AUC(0-t) [1]: 120 ng·h/mL
- AUC(0-inf) [1]: 122 ng·h/mL
- clearance [1]: 544 mL/min
- Cmax [1]: 520 ng/mL
- MRT [1]: 25.1 min
- Vd (female, iv, 0.06 mg/kg, Vss, females, 0.06 mg/kg, 5-minute IV infusion, geometric mean): 13.7 L
- Vd (female, iv, 0.06 mg/kg, Vz, females, 5-minute IV infusion, geometric mean): 39.2 L
- half-life (female, iv, 0.06 mg/kg, t1/2, females, 5-minute IV infusion, geometric mean): 50 min
- Tmax (female, iv, 0.06 mg/kg, females, 5-minute IV infusion): 5 min
- AUC(0-t) [2]: 440 ng·h/mL
- AUC(0-inf) [2]: 442 ng·h/mL
- clearance [2]: 557 mL/min
- Cmax [2]: 384 ng/mL
- MRT [2]: 30.9 min
- Vd (female, iv, 0.24 mg/kg, Vss, females, 0.24 mg/kg, 1-hour IV infusion, geometric mean): 17.2 L
- Vd (female, iv, 0.24 mg/kg, Vz, females, 1-hour IV infusion, geometric mean): 55.7 L
- half-life (female, iv, 0.24 mg/kg, t1/2, females, 1-hour IV infusion, geometric mean): 69.6 min
- Tmax (female, iv, 0.24 mg/kg, females, 1-hour IV infusion): 45 min
- AUC0-t (norm), ratio of geometric least squares means 5-minute:1-hour (females): 1.04
- AUC0-∞ (norm), ratio of geometric least squares means 5-minute:1-hour (females): 1.05
- CL, ratio of geometric least squares means 5-minute:1-hour (females): 0.950
- Cmax (norm), ratio of geometric least squares means 5-minute:1-hour (females): 5.27
- Cmax, fold higher for the 5-minute compared to the 1-hour infusion (females): 5.3 fold
- MRTint, ratio of geometric least squares means 5-minute:1-hour (females): 0.864
- Vss, ratio of geometric least squares means 5-minute:1-hour (females): 0.832
- Vz, ratio of geometric least squares means 5-minute:1-hour (females): 0.911
- t1/2, ratio of geometric least squares means 5-minute:1-hour (females): 0.901
- Between-subject variability (CV %) for AUC0-∞ [3]: 8.8%
- Between-subject variability (CV %) for Cmax [3]: 18.8%
- MRTint, geometric least squares mean (females, 1-hour infusion): 29.9 min
- MRTint, geometric least squares mean (females, 5-minute infusion): 25.8 min
- half-life (intravenous, Apparent elimination half life, individual subjects, males, 0.12 to 0.48 mg/kg, 1 hour infusion): 72 to 180 min
- Vd (male, intravenous, Apparent volume of distribution at steady state (VSS), males, 0.12 to 0.48 mg/kg dose range): 19 to 23 L
- clearance (male, intravenous, geometric least squares mean, males, 1-hour infusion, Parts A & B): 557 mL/min
- clearance (male, intravenous, geometric least squares mean, males, 5-minute infusion, Parts A & B): 538 mL/min
- half-life (male, intravenous, Mean apparent elimination half life, males, 0.015 to 0.06 mg/kg, 1 hour infusion): ~42 min
- half-life (male, intravenous, Mean apparent elimination half life, males, 0.03 to 0.09 mg/kg, 5-minute infusion): 60 to 78 min
- half-life (male, intravenous, Mean apparent elimination half life, males, 0.12 to 0.48 mg/kg, 1 hour infusion): 84 to 114 min
- Vd (male, intravenous, Vss, geometric least squares mean, males, 1-hour infusion, Parts A & B): 20.1 L
- Vd (male, intravenous, Vss, geometric least squares mean, males, 5-minute infusion, Parts A & B): 18.1 L
- Vd (male, intravenous, Vz, geometric least squares mean, males, 1-hour infusion, Parts A & B): 59.1 L
- Vd (male, intravenous, Vz, geometric least squares mean, males, 5-minute infusion, Parts A & B): 61 L
- half-life (male, intravenous, t1/2, geometric least squares mean, males, 1-hour infusion, Parts A & B): 75 min
- half-life (male, intravenous, t1/2, geometric least squares mean, males, 5-minute infusion, Parts A & B): 76.8 min
- AUC(0-t) [4]: 30 ng·h/mL
- AUC(0-inf) [4]: 31.4 ng·h/mL
- clearance [4]: 560 mL/min
- Cmax [4]: 27.8 ng/mL
- MRT [4]: 30.7 min
- Vd (male, iv, 0.015 mg/kg, Vss, males, 0.015 mg/kg, 1 hour IV infusion, geometric mean): 17.2 L
- Vd (male, iv, 0.015 mg/kg, Vz, males, 1 hour IV infusion, geometric mean): 33.5 L
- half-life (male, iv, 0.015 mg/kg, t1/2, males, 1 hour IV infusion, geometric mean): 41.5 min
- Tmax (male, iv, 0.015 mg/kg, males, 1 hour IV infusion): 60 min
- AUC(0-t) [5]: 65.9 ng·h/mL
- AUC(0-t) [6]: 70 ng·h/mL
- AUC(0-inf) [5]: 68.4 ng·h/mL
- AUC(0-inf) [6]: 72.5 ng·h/mL
- clearance [5]: 473 mL/min
- clearance [6]: 538 mL/min
- Cmax [5]: 233 ng/mL
- Cmax [6]: 65.3 ng/mL
- MRT [5]: 36.9 min
- MRT [6]: 30.6 min
- Vd (male, iv, 0.03 mg/kg, Vss, males, 0.03 mg/kg, 5-minute IV infusion, geometric mean): 17.4 L
- Vd (male, iv, 0.03 mg/kg, Vss, males, 0.03 mg/kg, 1 hour IV infusion, geometric mean): 16.5 L
- Vd (male, iv, 0.03 mg/kg, Vz, males, 5-minute IV infusion, geometric mean): 53.6 L
- Vd (male, iv, 0.03 mg/kg, Vz, males, 1 hour IV infusion, geometric mean): 34.1 L
- half-life (male, iv, 0.03 mg/kg, t1/2, males, 5-minute IV infusion, geometric mean): 78.6 min
- half-life (male, iv, 0.03 mg/kg, t1/2, males, 1 hour IV infusion, geometric mean): 43.9 min
- Tmax (male, iv, 0.03 mg/kg, males, 5-minute IV infusion): 5 min
- Tmax (male, iv, 0.03 mg/kg, males, 1 hour IV infusion): 60 min
- AUC(0-t) (male, iv, 0.06 mg/kg, males, 5-minute IV infusion, geometric mean): 139 ng·h/mL
- AUC(0-t) (male, iv, 0.06 mg/kg, males, 1 hour IV infusion, geometric mean): 129 ng·h/mL
